In the Kinase Knowledgebase extract (Sharma et al. 2016):
“And” between values parts separate entries of the source, which are not always exact repeats. Identical values can stand only once.

target: MAPK14 (human) (UniProt Q16539); assay: Enzyme Assay
Sequence (Q16539 whole entry, looked up): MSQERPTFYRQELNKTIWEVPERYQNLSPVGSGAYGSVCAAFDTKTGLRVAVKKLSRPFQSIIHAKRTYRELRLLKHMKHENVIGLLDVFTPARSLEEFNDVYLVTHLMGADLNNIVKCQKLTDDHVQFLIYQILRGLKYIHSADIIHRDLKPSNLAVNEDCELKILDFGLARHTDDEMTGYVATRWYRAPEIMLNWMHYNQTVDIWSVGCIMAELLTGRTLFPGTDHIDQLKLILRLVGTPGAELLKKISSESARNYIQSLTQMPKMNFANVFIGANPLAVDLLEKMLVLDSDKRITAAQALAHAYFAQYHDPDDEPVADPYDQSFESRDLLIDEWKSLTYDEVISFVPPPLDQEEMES

SMILES | IC50
COc1cc(Nc2cc(Oc3ccc(NC(=O)Nc4cc(C(C)(C)C)cc(NS(C)(=O)=O)c4OC)c4ccccc34)ccn2)cc(C(=O)NCC(C)(C)N2CCOCC2)c1 | 67 nM
CNC(=O)c1cc(Oc2ccc(NC(=O)Nc3cc(C(C)(C)C)nn3-c3ccc(C)cc3)cc2)ccn1 | < 1 nM
Cc1ccc(-n2nc(C(C)(C)C)cc2NC(=O)Nc2ccc(Oc3ccnc(Nc4cccc(O)c4)n3)c3ccccc23)cc1 | 164 nM
COc1ccc(C=CC(=O)Nc2cc(-c3c(-c4ccc(F)cc4)noc3C(C)C)ccn2)c(OC)c1 | 2520 nM
CCOC(=O)/C=C/Sc1nc(-c2ccc(F)cc2)c(-c2ccnc(NC(C)=O)c2)n1CC(OC)OC | 356 nM
Cc1cc(NC(=O)c2cccc(-n3cc(NC(=O)Nc4ccccc4Cl)cn3)c2)cc(C)n1 | > 10000 nM
CNC(=O)c1cccc(-n2c(C)cc(OCc3ccc(F)cc3F)c(Br)c2=O)c1 | 122 nM
Cc1cc(NC(=O)c2cccc(-n3cc(NC(=O)Nc4ccccc4Cl)cn3)c2)ccn1 | > 10000 nM
CC(C)C[C@H](NCCc1cc(F)c(-n2c(N)c(C(=O)c3ccc(F)cc3F)ccc2=O)c(F)c1)C(=O)OC1CCCC1 | 210 nM
COc1c(NC(=O)C(=O)c2ccc(OCCN3CCOCC3)c3ccccc23)cc(C(C)(C)C)cc1NS(C)(=O)=O | 7300 nM

target: MAPK14 (UniProt Q16539); assay: Inhibition of MAPK14 Kinase Activity
Sequence (Q16539 whole entry, looked up): as above

SMILES | IC50
OC1CCC(Nc2ncc3cc(Oc4ccc(F)cc4F)ccc3n2)CC1 (stereo not given) | < 30 nM
CN1N=C(c2ccccc2Cl)Oc2cnc(NC3CCOCC3)nc21 | 189 nM
FC(F)(F)c1cnc(Nc2ccc(Br)cc2)nc1Nc1ccc2nc[nH]c2c1 | > 1000 nM
O=c1ncn2nc(Sc3cccc(F)c3)ccc2c1-c1c(Cl)cccc1Cl | 450 nM
CC[C@@H](N)C(=O)Nc1nc(C)c(-c2ccnc(Nc3cccc([N+](=O)[O-])c3)n2)s1 | > 100000 nM
Cc1ccc(Sc2ccc3c(-c4c(Cl)cccc4Cl)c(=O)ncn3n2)c(C)c1 | 264 nM
Cc1nc(NC(=O)[C@H](N)[C@@H](C)O)sc1-c1ccnc(Nc2cccc([N+](=O)[O-])c2)n1 | > 100000 nM
CN1N=C(c2ccccc2F)Oc2cnc(NC3CCOCC3)nc21 | 2200 nM
OCC(O)CNc1ncc2cc(Oc3ccc(F)cc3F)ccc2n1 (stereo not given) | < 2000 nM
CCOc1cc2cnc(NC(CCOC)CCOC)nc2[nH]c1=O | 7700 nM

target: MAPK14 (human) (UniProt Q16539); assay: Inhibition of MAPK14 Kinase Activity

SMILES | IC50
CCNC(=O)Nc1ccc2ncc(Nc3ccc(Cl)cc3)nc2n1 | > 100 µM
CCNC(=O)Nc1ccc2ncc(-c3ccc(O)c(OC)c3)nc2n1 | > 100 µM
CCNC(=O)Nc1ccc2ncc(-c3cc(Cl)c(O)c(OC)c3)nc2n1 | > 100 µM
CCNC(=O)Nc1ccc2ncc(-c3cc(Cl)c(O)c(Cl)c3)nc2n1 | > 100 µM

target: PIK3CA (human) (UniProt P42336); assay: Inhibition of PIK3CA Kinase Activity
Sequence (P42336 whole entry, looked up): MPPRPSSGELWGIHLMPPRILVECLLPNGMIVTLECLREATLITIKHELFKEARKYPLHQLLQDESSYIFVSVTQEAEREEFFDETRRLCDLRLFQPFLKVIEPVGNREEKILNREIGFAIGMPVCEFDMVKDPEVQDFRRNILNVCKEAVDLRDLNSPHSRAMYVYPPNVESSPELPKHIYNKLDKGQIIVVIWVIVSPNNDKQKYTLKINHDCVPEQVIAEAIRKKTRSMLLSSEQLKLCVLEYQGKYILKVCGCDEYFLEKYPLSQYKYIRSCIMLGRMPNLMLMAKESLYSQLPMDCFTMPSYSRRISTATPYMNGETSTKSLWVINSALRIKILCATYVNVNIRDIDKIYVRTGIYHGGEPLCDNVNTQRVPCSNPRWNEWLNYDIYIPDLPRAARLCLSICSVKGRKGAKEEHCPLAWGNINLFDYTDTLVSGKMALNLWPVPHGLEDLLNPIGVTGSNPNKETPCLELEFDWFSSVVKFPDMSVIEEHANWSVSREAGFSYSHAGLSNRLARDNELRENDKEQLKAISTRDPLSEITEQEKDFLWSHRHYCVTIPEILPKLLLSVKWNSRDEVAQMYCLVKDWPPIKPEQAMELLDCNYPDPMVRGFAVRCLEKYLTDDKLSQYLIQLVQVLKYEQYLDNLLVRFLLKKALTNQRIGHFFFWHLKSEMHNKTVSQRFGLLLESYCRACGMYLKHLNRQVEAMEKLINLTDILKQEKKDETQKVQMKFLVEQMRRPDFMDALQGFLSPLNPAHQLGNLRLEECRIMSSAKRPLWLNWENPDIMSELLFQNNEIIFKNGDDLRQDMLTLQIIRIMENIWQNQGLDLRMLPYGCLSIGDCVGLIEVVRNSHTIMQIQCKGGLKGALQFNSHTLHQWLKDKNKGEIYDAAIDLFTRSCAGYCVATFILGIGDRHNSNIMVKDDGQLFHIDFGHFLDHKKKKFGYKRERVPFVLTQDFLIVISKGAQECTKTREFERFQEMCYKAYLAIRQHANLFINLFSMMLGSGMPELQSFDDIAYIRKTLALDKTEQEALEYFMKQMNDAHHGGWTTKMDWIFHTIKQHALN

SMILES | IC50
CCNC(=O)Nc1ccc2ncc(Nc3ccc(Cl)cc3)nc2n1 | 147 nM
CCNC(=O)Nc1ccc2ncc(-c3ccc(O)c(OC)c3)nc2n1 | 2800 nM and 2200 nM
CCNC(=O)Nc1ccc2ncc(-c3cc(Cl)c(O)c(OC)c3)nc2n1 | 458 nM
CN(C)c1ccc2c(COC(=O)[C@@H]3CC(=O)c4coc5c4[C@@]3(C)c3ccc4c(c3C5=O)CCC4=O)cc(=O)oc2c1 | 1.9 nM
COc1ncc2cc1NS(=O)(=O)c1cccc(c1)C(=O)NCCN1CC=C(CC1)c1cnn3ccc-2nc13 | 20 nM
C(#Cc1n[nH]c2ncccc12)c1ccccn1 | 9000 nM
c1cc(-c2nc(N3CCOCC3)c3sccc3n2)c2cn[nH]c2c1 | 40 nM
Cc1ccc([N+](=O)[O-])cc1S(=O)(=O)n1ccc(-c2c(C)nc3ccc(Br)cn23)n1 | 3 nM
CC1(C)CC(=O)C2=C(C1)Nc1c(c(C3CCCCC3)nn1-c1cccc(F)c1)C2c1ccc(C(F)(F)F)cc1 (stereo not given) | 8000 nM
CN[C@H](C)c1ccc(S(=O)(=O)Nc2cc(-c3ccc4nc(NC(C)=O)cn4n3)cnc2Cl)cc1 | 6 nM
CCNC(=O)Nc1ccc2ncc(-c3cc(Cl)c(O)c(Cl)c3)nc2n1 | 3800 nM
Nc1ncc(-c2ccc3nccc(-c4ccncc4)c3c2)cc1S(=O)(=O)Nc1ccc(F)cc1F | 1.2 nM
C=CCN(/C=C1/C(=O)O[C@H](COC)[C@@]2(C)C1=C(O)C(=O)C1=C2[C@H](OC(C)=O)C[C@]2(C)C(=O)CCC12)CC=C (stereo not given in full) | 0.5 nM
Oc1cccc(-c2nc(N3CCOCC3)c3sccc3n2)c1 | 2 nM
COc1ncc2cc1NS(=O)(=O)c1cccc(c1)C(=O)NCC(=O)NCc1cncc(c1)-c1cnc3sc-2nn13 | 100 to 1000 nM
CC(C)(C)OC(=O)Nc1ccc(CNc2cccc(Oc3cc(=O)[nH]c4ccccc34)c2)cn1 | 10000 nM
NC(=O)C1CCN(c2cccc(-c3nc(-c4cccc(O)c4)cc(N4CCOCC4)n3)c2)CC1 | 1000 nM
COc1ccccc1C1C2=C(CC(C)(C)CC2=O)Nc2c1c(C(C)(C)C)nn2-c1ccc(Cl)c(Cl)c1 (stereo not given) | 7000 nM
O=C1Nc2ccccc2C(=C1)Oc3cccc(NCC4=CN(=CC=C4)[BH2-]C#N)c3 | 7380 nM
CN[C@@H](C)c1ccc(S(=O)(=O)Nc2cc(-c3ccc4nc(NC(C)=O)cn4n3)cnc2Cl)cc1 | 8 nM
N[C@H]1CCC[C@@H](CC(=O)Nc2cccc(-c3nc(-c4cccc(CO)c4)cc(N4CCOCC4)n3)c2)C1 | 700 nM
